Tests used:
[1] = system: harmful plants such as Stellaria media, Lolium multiforum, Amaranthus retroflexus, Sinapis alba, Avena sativa and Setaria viridis; test: Pre-emergence effect on weeds (greenhouse pot test); format: in vivo; settings: application rate of 0.5 kg or less of active ingredient per hectare; applied to soil cover; scored visually after 3 to 4 weeks vs untreated controls
Source text: Seeds or rhizome pieces of monocotyledonous and dicotyledonous weed plants were placed in sandy loam in plastic pots and covered with soil. The compounds according to the invention, which were formulated in the form of wettable powders or emulsion concentrates, were then applied to the surface of the soil cover as aqueous suspension or emulsion at various dosages with an application rate of 600 to 800 l of water per ha (converted).

[2] = system: harmful plants such as Sinapis alba, Echinochloa crus-galli, Lolium multiflorum, Stellaria media, Cyperus iria, Amaranthus retroflexus, Setaria viridis, Avena …; test: Post-emergence effect on weeds (greenhouse pot test); format: in vivo; settings: application rate of 2 kg or less of active ingredient per hectare; sprayed in the three-leaf stage; scored visually after approx. 3 to 4 weeks vs untreated controls
Procedure: Seeds or rhizome pieces of monocotyledonous and dicotyledonous weeds were placed in sandy loam in plastic pots, covered with soil and grown in the greenhouse under good growth conditions. Three weeks after sowing, the test plants were treated in the three-leaf stage. Various dosages of the compounds according to the invention, which were formulated as wettable powders or emulsion concentrates, were sprayed to the green plant parts at an application rate of 600 to 800 l of water per ha (converted). After the test plants have been left to stand in the greenhouse for approx. 3 to 4 weeks under optimal growth conditions, the effect of the preparations was scored visually by comparison with untreated controls. Compound nos.

[3] = system: plantation crops such as oil palm, coconut palm, India-rubber tree, citrus, pineapples, cotton, coffee, cocoa and vines; test: Weed control in plantation crops (field trials, crop tolerance); format: in vivo; settings: natural weed infestation, various dosages, even at high rates of active substance
Procedure: In further field trials plantation crops were grown under conditions of natural weed infestation and sprayed with various dosages of the substances of formula (I) according to the invention.

Row | Structure (SMILES) | pre-emergence control of harmful plants [1] | herbicidal post-emergence activity against harmful plants [2] | damage to plantation crops (visual assessment) [3] | melting point [°C]
1 | Cc1cc(C)c2c(c1)[C@H](Nc1nc(N)nc(C(F)F)n1)CCC2 [Compound 2.5] | very good pre-emergence control | very good herbicidal post-emergence activity | unharmed | 
2 | C[C@H]1Cc2ccc(Br)cc2[C@@H]1Nc1nc(N)nc(C(F)F)n1 [Compound 3.82] | very good pre-emergence control | very good herbicidal post-emergence activity | unharmed | 
3 | CC(=O)Nc1nc(N[C@H]2c3cc(C)ccc3C[C@@H]2C)nc(C(F)F)n1 [Compound 3.106] | very good pre-emergence control | very good herbicidal post-emergence activity | unharmed | 
4 | CC[C@H]1Cc2ccc(C)cc2[C@@H]1Nc1nc(N)nc(C(F)F)n1 [Compound 3.31] | very good pre-emergence control | very good herbicidal post-emergence activity | unharmed | 
5 | Cc1ccc2c(c1)[C@H](Nc1nc(NC(=O)C(C)(C)C)nc(C(F)F)n1)[C@@H](C)C2 [Compound 3.112] | very good pre-emergence control | very good herbicidal post-emergence activity | unharmed | 
6 | CCC(=O)Nc1nc(N[C@H]2c3cc(C)ccc3C[C@@H]2C)nc(C(F)F)n1 [Compound 3.109, N-(4-(difluoromethyl)-6-{[(1R,2S)-2,6-dimethyl-2,3-dihydro-1H-inden-1-yl]-amino}-1,3,5-triazin-2-yl)propanamide] | very good pre-emergence control | very good herbicidal post-emergence activity | unharmed | 
7 | Cc1cccc2c1OCCC2Nc1nc(N)nc(C(F)F)n1 (racemic) [Compound 1.205] | very good pre-emergence control | very good herbicidal post-emergence activity | unharmed | 
8 | Cc1cc(C)c2c(c1)C(Nc1nc(N)nc(C(F)F)n1)CCC2 (racemic) [Compound 1.5] | very good pre-emergence control | very good herbicidal post-emergence activity | unharmed | 
9 | Cc1ccc2c(c1)[C@H](Nc1nc(N)nc(C(F)F)n1)CCO2 [Compound 2.3] | very good pre-emergence control | very good herbicidal post-emergence activity | unharmed | 
10 | Cc1ccc2c(c1)[C@H](Nc1nc(N)nc(C(F)F)n1)[C@@H](C)C2 [Compound 3.1, 6-(difluoromethyl)-N-[(1R,2S)-2,6-dimethyl-2,3-dihydro-1H-inden-1-yl]-1,3,5-triazine-2,4-diamine] | very good pre-emergence control | very good herbicidal post-emergence activity | unharmed | 132 to 134
11 | Cc1ccc2c(c1)[C@H](Nc1nc(N)nc(C(F)F)n1)CCC2 [Compound 2.2] | very good pre-emergence control | very good herbicidal post-emergence activity | unharmed | 
12 | Cc1ccc2c(c1)[C@H](Nc1nc(NC=O)nc(C(F)F)n1)[C@@H](C)C2 [Compound 3.118, N-[4-(difluoromethyl)-6-{[(1R,2S)-2,6-dimethyl-2,3-dihydro-1H-inden-1-yl]amino}-1,3,5-triazin-2-yl]-formamide] |  |  |  | 66
13 | Nc1nc(N[C@@H]2CCOc3c(F)cccc32)nc(C(F)F)n1 [Compound 2.206, 6-(Difluoromethyl)-N-[(4R)-8-fluoro-3,4-dihydro-2H-chromen-4-yl]-1,3,5-triazine-2,4-diamine] | very good pre-emergence control | very good herbicidal post-emergence activity | unharmed | 
14 | Cc1ccc2c(c1)[C@H](Nc1nc(N)nc(C(F)F)n1)CC2 [Compound 2.1] | very good pre-emergence control | very good herbicidal post-emergence activity | unharmed | 
